The target in data set [1] is T1, Sodium/glucose cotransporter 1 (Homo sapiens, UniProt P13866).
T1 sequence (P13866 whole entry): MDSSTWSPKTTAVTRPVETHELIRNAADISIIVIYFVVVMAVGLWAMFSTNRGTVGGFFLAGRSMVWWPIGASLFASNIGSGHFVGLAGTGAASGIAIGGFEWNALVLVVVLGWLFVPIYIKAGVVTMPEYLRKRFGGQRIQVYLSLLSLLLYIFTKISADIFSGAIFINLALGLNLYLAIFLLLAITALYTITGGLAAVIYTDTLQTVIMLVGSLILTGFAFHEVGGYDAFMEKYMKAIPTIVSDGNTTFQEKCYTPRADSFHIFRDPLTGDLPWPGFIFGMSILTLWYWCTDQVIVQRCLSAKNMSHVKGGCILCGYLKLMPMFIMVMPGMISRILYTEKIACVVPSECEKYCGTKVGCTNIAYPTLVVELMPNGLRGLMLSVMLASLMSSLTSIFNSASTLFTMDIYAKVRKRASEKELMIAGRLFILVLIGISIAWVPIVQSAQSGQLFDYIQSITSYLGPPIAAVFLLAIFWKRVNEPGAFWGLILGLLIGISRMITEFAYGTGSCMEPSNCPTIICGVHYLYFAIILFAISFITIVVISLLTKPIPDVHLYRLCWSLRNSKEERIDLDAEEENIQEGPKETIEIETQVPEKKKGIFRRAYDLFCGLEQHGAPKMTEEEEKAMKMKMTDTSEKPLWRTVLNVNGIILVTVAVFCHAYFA
In words: Inhibition of human SGLT1 expressed in CHOK1 cells assessed as inhibition of [14C]-AMG uptake after 3 hrs by microbeta scintillation counting analysis. It is filed as cell-based, CHO-K1.

Data set [2] concerns the target T2, Sodium/glucose cotransporter 2 (Homo sapiens, UniProt P31639).
T2 sequence (P31639 whole entry): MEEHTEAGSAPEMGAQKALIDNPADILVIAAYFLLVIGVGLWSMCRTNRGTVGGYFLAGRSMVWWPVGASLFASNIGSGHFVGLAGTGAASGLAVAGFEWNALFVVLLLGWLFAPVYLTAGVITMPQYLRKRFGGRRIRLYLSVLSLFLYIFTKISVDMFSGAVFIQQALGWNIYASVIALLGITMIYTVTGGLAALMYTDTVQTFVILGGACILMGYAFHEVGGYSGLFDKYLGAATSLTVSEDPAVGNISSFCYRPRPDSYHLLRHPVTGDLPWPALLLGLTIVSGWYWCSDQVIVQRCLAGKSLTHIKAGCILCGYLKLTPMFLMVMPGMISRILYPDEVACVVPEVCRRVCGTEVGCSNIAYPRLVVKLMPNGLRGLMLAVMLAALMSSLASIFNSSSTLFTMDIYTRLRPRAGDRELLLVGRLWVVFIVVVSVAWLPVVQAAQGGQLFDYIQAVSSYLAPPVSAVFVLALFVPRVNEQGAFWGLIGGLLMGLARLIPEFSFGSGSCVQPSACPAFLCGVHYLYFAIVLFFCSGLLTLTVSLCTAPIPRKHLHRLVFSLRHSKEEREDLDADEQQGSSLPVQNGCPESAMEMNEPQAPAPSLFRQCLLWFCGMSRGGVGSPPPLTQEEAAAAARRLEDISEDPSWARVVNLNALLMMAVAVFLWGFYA
Nature of the data set: Inhibition of human SGLT2 expressed in CHOK1 cells assessed as inhibition of [14C]-AMG uptake after 3 hrs by microbeta scintillation counting analysis. It counts as cell-based, CHO-K1.

Another data set addresses T3, Cytochrome P450 1A2 (Homo sapiens, UniProt P05177).
T3 sequence (P05177 whole entry): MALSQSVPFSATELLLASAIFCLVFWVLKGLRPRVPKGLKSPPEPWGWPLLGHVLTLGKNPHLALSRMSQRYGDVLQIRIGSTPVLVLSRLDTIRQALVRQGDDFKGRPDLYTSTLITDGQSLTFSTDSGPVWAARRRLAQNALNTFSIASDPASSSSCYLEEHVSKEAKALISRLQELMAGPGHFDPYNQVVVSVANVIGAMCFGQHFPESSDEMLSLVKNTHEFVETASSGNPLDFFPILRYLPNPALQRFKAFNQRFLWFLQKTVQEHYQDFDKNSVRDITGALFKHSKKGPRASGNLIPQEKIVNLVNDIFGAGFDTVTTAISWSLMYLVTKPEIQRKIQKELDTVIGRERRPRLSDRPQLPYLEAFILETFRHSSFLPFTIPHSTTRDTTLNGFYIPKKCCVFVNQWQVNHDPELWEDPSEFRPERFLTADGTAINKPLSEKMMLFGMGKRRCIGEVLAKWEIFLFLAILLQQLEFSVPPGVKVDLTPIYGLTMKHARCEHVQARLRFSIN
In words: Inhibition of CYP1A2 (unknown origin). It is filed as ADME.

For a further data set, the target named is T4, Cytochrome P450 2B6 (Homo sapiens, UniProt P20813).
T4 sequence (P20813 whole entry): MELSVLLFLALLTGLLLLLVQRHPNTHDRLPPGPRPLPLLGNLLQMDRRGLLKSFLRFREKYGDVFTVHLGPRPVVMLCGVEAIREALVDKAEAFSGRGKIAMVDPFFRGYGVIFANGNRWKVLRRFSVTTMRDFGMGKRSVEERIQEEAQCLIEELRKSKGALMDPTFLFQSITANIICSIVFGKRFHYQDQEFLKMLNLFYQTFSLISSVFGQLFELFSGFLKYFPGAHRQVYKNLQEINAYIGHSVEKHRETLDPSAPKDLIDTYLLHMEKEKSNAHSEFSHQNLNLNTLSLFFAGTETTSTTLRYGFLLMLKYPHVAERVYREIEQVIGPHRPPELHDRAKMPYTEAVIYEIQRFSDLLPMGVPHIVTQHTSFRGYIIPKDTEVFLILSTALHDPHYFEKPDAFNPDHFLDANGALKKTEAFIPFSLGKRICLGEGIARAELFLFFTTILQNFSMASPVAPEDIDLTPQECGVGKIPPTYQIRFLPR
Nature of the data set: Inhibition of CYP2B6 (unknown origin). It counts as ADME.

Another data set deals with Cytochrome P450 2C9 (Homo sapiens, UniProt P11712). Nature of the data set: Inhibition of CYP2C9 (unknown origin). It is filed as ADME.
Cytochrome P450 2C9, sequence (P11712 whole entry): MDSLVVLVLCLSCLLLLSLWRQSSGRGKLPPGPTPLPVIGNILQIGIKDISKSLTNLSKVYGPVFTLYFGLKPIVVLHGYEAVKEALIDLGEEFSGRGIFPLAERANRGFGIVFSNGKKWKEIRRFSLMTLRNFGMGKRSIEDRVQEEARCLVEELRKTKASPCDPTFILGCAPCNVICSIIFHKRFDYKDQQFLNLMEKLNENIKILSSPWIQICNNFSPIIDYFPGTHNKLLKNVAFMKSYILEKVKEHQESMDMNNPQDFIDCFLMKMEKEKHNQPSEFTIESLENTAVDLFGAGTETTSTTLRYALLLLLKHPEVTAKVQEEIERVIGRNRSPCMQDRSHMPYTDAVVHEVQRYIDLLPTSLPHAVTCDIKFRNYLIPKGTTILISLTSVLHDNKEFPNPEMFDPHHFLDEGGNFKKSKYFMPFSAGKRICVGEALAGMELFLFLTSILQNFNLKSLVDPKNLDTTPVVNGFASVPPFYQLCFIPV
In the next data set the target is Cytochrome P450 2C19 (Homo sapiens, UniProt P33261). In words: Inhibition of CYP2C19 (unknown origin). It counts as ADME.
Cytochrome P450 2C19, sequence (P33261 whole entry): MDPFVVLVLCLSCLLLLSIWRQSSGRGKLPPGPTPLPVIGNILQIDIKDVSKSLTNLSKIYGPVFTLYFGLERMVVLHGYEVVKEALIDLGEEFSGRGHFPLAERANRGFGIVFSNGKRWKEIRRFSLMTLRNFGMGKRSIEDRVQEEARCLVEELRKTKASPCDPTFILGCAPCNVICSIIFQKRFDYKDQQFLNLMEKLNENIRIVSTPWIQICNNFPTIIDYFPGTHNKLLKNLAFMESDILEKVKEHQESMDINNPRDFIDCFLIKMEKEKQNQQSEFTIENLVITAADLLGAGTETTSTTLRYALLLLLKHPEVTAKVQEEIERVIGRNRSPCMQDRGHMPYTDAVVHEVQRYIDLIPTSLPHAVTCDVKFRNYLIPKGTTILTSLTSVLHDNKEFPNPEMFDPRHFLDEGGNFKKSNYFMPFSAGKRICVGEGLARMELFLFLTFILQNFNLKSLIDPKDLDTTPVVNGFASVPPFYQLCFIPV
A further data set concerns the target Cytochrome P450 2D6 (Homo sapiens, UniProt P10635). In words: Inhibition of CYP2D6 (unknown origin). It is filed as ADME.
In the next data set the target is Cytochrome P450 3A4 (Homo sapiens, UniProt P08684). Nature of the data set: Inhibition of CYP3A4 (unknown origin). It is filed as ADME.
Cytochrome P450 3A4, sequence (P08684 whole entry): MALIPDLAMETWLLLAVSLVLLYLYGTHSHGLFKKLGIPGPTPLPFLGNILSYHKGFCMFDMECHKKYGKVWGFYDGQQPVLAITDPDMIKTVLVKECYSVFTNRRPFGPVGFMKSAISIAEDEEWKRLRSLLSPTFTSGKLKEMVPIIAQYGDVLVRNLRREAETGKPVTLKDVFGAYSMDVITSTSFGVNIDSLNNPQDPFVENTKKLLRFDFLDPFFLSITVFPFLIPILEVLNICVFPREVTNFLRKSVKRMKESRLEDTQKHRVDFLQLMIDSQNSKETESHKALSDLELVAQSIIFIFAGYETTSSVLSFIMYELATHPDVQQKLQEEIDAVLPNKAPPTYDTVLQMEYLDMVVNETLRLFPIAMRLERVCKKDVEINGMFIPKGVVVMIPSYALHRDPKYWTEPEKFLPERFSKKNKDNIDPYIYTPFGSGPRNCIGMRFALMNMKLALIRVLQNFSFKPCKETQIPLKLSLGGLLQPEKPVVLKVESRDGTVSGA
Data set [3] in a line: Intrinsic clearance in human liver microsomes. It is filed as ADME. The conditions noted are these: read-out: CLH. (In general: Liver microsomes are vesicles of endoplasmic reticulum, rich in cytochrome P450 enzymes.)
Data set [4] is described as follows: Intrinsic clearance in rat liver microsomes. It counts as ADME. The conditions noted are these: read-out: CLH.
Data set [5] in a line: Oral bioavailability in rat. It is filed as ADME, organism-based. Conditions: in vivo.
Data set [6] is described as follows: Half life in rat. Conditions: in vivo. It counts as ADME, organism-based.

Where only a bound is given, the exact number is not on record here.

19 compounds from ChEMBL document CHEMBL3286323, “The design and synthesis of novel SGLT2 inhibitors: C-glycosides with benzyltriazolopyridinone and phenylhydantoin as the aglycone moieties” (Bioorg Med Chem, 2014) can be followed below.

As usually defined, the IC50 is the concentration needed to halve the response being measured. As usually defined, the bioavailability is the share of a dose that reaches the circulation, judged against a reference dose that is usually intravenous. Low readings indicate poor availability, high ones good availability. In general, half-life refers to the time in which the quantity being followed falls by half. A low value points to rapid decline.

Cytochrome P450 2D6, sequence (P10635 whole entry): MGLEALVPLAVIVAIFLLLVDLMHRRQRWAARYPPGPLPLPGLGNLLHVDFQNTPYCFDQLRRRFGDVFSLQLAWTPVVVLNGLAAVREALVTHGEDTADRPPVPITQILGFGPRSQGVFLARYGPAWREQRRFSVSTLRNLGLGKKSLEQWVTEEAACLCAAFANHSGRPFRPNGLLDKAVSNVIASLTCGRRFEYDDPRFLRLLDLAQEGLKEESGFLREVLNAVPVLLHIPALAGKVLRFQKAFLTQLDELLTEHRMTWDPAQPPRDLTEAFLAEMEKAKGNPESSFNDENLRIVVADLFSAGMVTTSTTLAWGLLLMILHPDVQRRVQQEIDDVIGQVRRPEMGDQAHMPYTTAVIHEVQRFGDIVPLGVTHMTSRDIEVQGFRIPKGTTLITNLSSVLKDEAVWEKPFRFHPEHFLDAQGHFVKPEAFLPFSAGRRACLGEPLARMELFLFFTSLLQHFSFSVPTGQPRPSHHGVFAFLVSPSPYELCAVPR

`O=c1n(Cc2cc([C@@H]3O[C@H](CO)[C@@H](O)[C@H](O)[C@H]3O)ccc2Cl)nc2ccccn12`: in data set [1], the IC50 was greater than 90 µM.
With `O=c1n(Cc2cc([C@@H]3O[C@H](CO)[C@@H](O)[C@H](O)[C@H]3O)ccc2Cl)nc2ccc(Cl)cn12`, the IC50 in data set [2] was 80 nM; in data set [1], greater than 90 µM.
`O=c1n(Cc2cc([C@@H]3O[C@H](CO)[C@@H](O)[C@H](O)[C@H]3O)ccc2Cl)nc2ccc(Br)cn12`: the IC50 in [2] was 107 nM; in data set [1] it was greater than 90 µM.
For `Cc1ccc2nn(Cc3cc([C@@H]4O[C@H](CO)[C@@H](O)[C@H](O)[C@H]4O)ccc3Cl)c(=O)n2c1`, in that order: 120 nM and greater than 90 µM.
Turning to `O=c1n(Cc2cc([C@@H]3O[C@H](CO)[C@@H](O)[C@H](O)[C@H]3O)ccc2Cl)nc2ccc(CO)cn12`, in data set [2], the IC50 is 141 nM.
Regarding `O=c1n(Cc2cc([C@@H]3O[C@H](CO)[C@@H](O)[C@H](O)[C@H]3O)ccc2Cl)nc2ccc(F)cn12`, the IC50 in [1] was greater than 90 µM.
`O=c1n(Cc2cc([C@@H]3O[C@H](CO)[C@@H](O)[C@H](O)[C@H]3O)ccc2Cl)nc2ccc(C(F)(F)F)cn12`: the IC50 in [2] came out at 762 nM.
Still for that read-out and setting: the value for `O=c1n(Cc2cc([C@@H]3O[C@H](CO)[C@@H](O)[C@H](O)[C@H]3O)ccc2Cl)nc2cc(Cl)ccn12` was 89 nM.
`Cc1ccn2c(=O)n(Cc3cc([C@@H]4O[C@H](CO)[C@@H](O)[C@H](O)[C@H]4O)ccc3Cl)nc2c1`: in data set [1], the IC50 was greater than 90 µM.
`O=c1n(Cc2cc([C@@H]3O[C@H](CO)[C@@H](O)[C@H](O)[C@H]3O)ccc2Cl)nc2cc(C(F)(F)F)ccn12`: the IC50 was 252 nM in data set [2] and greater than 90 µM in data set [1].
For `COc1ccn2c(=O)n(Cc3cc([C@@H]4O[C@H](CO)[C@@H](O)[C@H](O)[C@H]4O)ccc3Cl)nc2c1`, in that order: 5480 nM and greater than 90 µM.
As to `O=c1n(Cc2cc([C@@H]3O[C@H](CO)[C@@H](O)[C@H](O)[C@H]3O)ccc2Cl)nc2cc(OCC(F)(F)F)ccn12`, the IC50 in data set [2] was 5700 nM; in data set [1], greater than 90 µM.
For `Cc1cccc2nn(Cc3cc([C@@H]4O[C@H](CO)[C@@H](O)[C@H](O)[C@H]4O)ccc3Cl)c(=O)n12` the same measures were 9920 nM and greater than 90 µM.
For `O=c1n(Cc2cc([C@@H]3O[C@H](CO)[C@@H](O)[C@H](O)[C@H]3O)ccc2Cl)nc2c(Cl)cccn12` the same measures were 9000 nM and greater than 90 µM.
For `O=c1n(Cc2cc([C@@H]3O[C@H](CO)[C@@H](O)[C@H](O)[C@H]3O)ccc2Cl)nc2c(F)cccn12`, in that order: 3300 nM and greater than 90 µM.
In the case of `Cc1cc2nn(Cc3cc([C@@H]4O[C@H](CO)[C@@H](O)[C@H](O)[C@H]4O)ccc3Cl)c(=O)n2cc1Cl`, the IC50 in data set [2] was 33 nM; on Cytochrome P450 1A2, greater than 11 µM; against Cytochrome P450 2B6, greater than 11 µM; on Cytochrome P450 2C9, greater than 11 µM; against Cytochrome P450 2C19 it was greater than 11 µM; at Cytochrome P450 2D6 it was greater than 11 µM. On Cytochrome P450 3A4, the IC50 is greater than 11 µM. The microsomal CLint in data set [3] amounted to 3.6 µL/min/mg; in data set [4] it was 2.8 µL/min/mg.
For `CN1C(=O)N(c2ccc(Cc3cc([C@@H]4O[C@H](CO)[C@@H](O)[C@H](O)[C@H]4O)ccc3Cl)cc2)C(C)(C)C1=O`, the IC50 in data set [2] turned out to be 248 nM; in [1], 83.1 µM.
Turning to `CCN1C(=O)CN(c2ccc(Cc3cc([C@@H]4O[C@H](CO)[C@@H](O)[C@H](O)[C@H]4O)ccc3Cl)cc2)C1=O`, the IC50 in [2] was 10.9 nM; on Cytochrome P450 1A2 it was greater than 11 µM; at Cytochrome P450 2B6, greater than 11 µM; at Cytochrome P450 2C9 it was greater than 11 µM; against Cytochrome P450 2C19, greater than 11 µM; on Cytochrome P450 2D6, greater than 11 µM. This compound also yielded an IC50 on Cytochrome P450 3A4 greater than 11 µM. The values for the microsomal CLint in data set [3] and in data set [4] were 1.3 µL/min/mg and 1.9 µL/min/mg, respectively. The compound further came in with a bioavailability in [5] of 4%. The compound also showed a half-life in data set [6] of 35 min.
On to `CN1C(=O)CN(c2ccc(Cc3cc([C@@H]4O[C@H](CO)[C@@H](O)[C@H](O)[C@H]4O)ccc3Cl)cc2)C1=O`, for which the results for the IC50 in data set [2] and in data set [1] were 489 nM and 90 µM, respectively.
